Experimental findings from ChEMBL document CHEMBL1138896, “2,3,7-Trisubstituted pyrazolo[1,5-d][1,2,4]triazines: functionally selective GABAA alpha3-subtype agonists” (Bioorg Med Chem Lett, 2006) are described below.

The target of data set [1] is T1, GABA-A receptor; alpha-3/beta-3/gamma-2 (Homo sapiens, UniProt P18507+P28472+P34903).
T1 sequence (P18507 whole entry): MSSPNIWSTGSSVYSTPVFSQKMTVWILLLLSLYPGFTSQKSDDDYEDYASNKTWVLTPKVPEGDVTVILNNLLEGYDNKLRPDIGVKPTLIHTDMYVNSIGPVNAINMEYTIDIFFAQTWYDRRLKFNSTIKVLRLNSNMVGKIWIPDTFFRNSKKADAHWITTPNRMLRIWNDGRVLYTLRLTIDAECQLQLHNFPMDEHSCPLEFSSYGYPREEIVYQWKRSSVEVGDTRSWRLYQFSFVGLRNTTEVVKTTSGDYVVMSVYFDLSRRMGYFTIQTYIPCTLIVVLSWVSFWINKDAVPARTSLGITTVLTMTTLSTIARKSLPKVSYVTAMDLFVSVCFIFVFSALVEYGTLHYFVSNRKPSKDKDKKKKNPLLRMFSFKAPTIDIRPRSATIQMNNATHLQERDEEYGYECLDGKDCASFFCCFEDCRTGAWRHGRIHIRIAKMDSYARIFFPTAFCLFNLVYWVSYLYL
T1 sequence (P28472 whole entry): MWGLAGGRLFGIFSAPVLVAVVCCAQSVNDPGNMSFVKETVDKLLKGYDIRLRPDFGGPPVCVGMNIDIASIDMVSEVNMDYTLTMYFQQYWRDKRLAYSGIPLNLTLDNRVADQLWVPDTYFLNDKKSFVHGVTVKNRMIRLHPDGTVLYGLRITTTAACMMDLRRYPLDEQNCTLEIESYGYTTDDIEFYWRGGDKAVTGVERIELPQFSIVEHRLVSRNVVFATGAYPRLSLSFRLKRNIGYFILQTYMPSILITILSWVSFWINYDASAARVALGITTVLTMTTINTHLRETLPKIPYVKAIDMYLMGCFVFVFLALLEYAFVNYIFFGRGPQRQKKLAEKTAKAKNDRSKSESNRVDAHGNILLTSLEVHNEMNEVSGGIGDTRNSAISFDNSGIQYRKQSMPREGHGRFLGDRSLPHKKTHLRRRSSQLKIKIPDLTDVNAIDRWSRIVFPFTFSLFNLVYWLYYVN
T1 sequence (P34903 whole entry): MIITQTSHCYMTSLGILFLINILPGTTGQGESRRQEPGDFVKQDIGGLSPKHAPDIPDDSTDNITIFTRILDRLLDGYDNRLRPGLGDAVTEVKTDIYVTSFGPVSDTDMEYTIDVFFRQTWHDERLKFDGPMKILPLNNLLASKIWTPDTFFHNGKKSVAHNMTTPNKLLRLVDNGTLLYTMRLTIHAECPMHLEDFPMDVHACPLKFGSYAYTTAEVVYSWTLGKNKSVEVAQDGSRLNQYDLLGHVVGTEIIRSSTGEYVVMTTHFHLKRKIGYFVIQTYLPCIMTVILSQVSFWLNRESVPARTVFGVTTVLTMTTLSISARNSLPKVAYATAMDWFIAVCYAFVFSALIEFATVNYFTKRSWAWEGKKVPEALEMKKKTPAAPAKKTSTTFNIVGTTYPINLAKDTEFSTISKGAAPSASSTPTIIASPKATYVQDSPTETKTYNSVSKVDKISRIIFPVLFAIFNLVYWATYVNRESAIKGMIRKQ
Kind of data set: Inhibition of [3H]Ro15-1788 binding to human recombinant GABA-Aalpha3 plus beta-3-gamma-2 receptor expressed in L(tk-) cells. In kind it is cell-based.

The target of data set [2] is GABA-A receptor; alpha-3/beta-3/gamma-2 (Homo sapiens) (UniProt P18507+P28472+P34903). Put plainly: Efficacy against human recombinant GABA-Aalpha3 plus beta-3-gamma-2 receptor expressed in L(tk-) cells assessed as modulation of chloride ion by whole cell patch clamp method relative to chlorodiazepoxide. In kind it is functional, cell-based.
In data set [3] the target is GABA-A receptor; alpha-1/beta-3/gamma-2 (Homo sapiens) (UniProt P14867+P18507+P28472). Kind of data set: Efficacy against human recombinant GABA-Aalpha1 plus beta-3-gamma-2 receptor expressed in L(tk-) cells assessed as modulation of chloride ion by whole cell patch clamp method relative to chlorodiazepoxide. In kind it is functional, cell-based. On the technique in general: Patch clamp records ionic current or voltage across a cell membrane.

Data set [4] is described as follows: Oral bioavailability in rat. In kind it is ADME, organism-based. The settings on record: in vivo.
Another data set has as its system Rattus norvegicus. Put plainly: Receptor occupancy in rat, po. The class given is functional.
The target of data set [5] is T2, GABA-A receptor; alpha-1/beta-3/gamma-2 (Homo sapiens, UniProt P14867+P18507+P28472).
T2 sequence (P14867 whole entry): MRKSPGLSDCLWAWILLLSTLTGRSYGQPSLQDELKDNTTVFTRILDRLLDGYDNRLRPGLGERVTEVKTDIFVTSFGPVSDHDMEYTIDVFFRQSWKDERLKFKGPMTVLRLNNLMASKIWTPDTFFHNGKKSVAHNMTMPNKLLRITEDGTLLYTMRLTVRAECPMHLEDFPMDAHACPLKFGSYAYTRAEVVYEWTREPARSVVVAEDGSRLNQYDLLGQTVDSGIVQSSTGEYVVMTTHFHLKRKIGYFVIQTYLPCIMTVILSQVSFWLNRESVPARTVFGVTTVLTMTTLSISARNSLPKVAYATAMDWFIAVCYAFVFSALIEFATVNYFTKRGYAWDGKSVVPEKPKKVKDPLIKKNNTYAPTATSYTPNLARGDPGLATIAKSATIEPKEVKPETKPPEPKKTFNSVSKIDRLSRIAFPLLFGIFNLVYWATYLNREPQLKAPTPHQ
T2 sequence (P18507 whole entry): T1 sequence (P18507 whole entry)
T2 sequence (P28472 whole entry): T1 sequence (P28472 whole entry)
Kind of data set: Inhibition of [3H]Ro15-1788 binding to human recombinant GABA-Aalpha1 plus beta-3-gamma-2 receptor expressed in L(tk-) cells. In kind it is cell-based.

As a reminder, the Ki is a dissociation constant, usually derived from enzyme kinetics or from competition with a known ligand. With `Cn1ncnc1COc1nn2c(-c3cccs3)nncc2c1-c1ccccc1`, the Ki in data set [1] amounted to 1.6 nM. Besides, the Efficacy in data set [2] is 0.19; in data set [3], -0.03.

In the case of `Cn1ncnc1COc1nn2c(-c3ccccc3F)nncc2c1-c1cc(F)ccc1F`, the inhibition constant (Ki) in data set [1] was 0.2 nM. Moreover, the Efficacy in data set [2] came out at 0.46; in data set [3], 0.29.

As to `Cn1ncnc1COc1nn2c(-c3cc(F)ccc3F)nncc2c1-c1ccccc1F`, the Ki in data set [1] was found to be 1.3 nM. Moreover, the Efficacy in data set [2] and in data set [3] was 0.52 throughout.

In the case of `Cn1ncnc1COc1nn2c(-c3cccc(F)c3)nncc2c1-c1ccccc1F`, the Ki in data set [1] was found to be 1.2 nM. Moreover, the Efficacy is 0.57 in data set [2] and 0.38 in data set [3].

For `Cn1ncnc1COc1nn2c(-c3ccccc3F)nncc2c1-c1cccnc1`, the inhibition constant (Ki) in data set [1] came to 0.98 nM. Moreover, the Efficacy came out at 0.52 in data set [2] and 0.35 in data set [3].

For the compound `Cn1ncnc1COc1nn2c(-c3ccccc3F)nncc2c1-c1cccc(Cl)c1`, the inhibition constant (Ki) in data set [1] worked out at 1.1 nM. In addition, the Efficacy in data set [2] is 0.45; in data set [3] it was 0.35.

For `Cn1ncnc1COc1nn2c(-c3c(F)cccc3F)nncc2c1-c1ccccc1F`, the Ki in data set [1] turned out to be 0.52 nM. Moreover, the values for the Efficacy in data set [2] and in data set [3] were 0.55 and 0.29, respectively.

Turning to `Cn1ncnc1COc1nn2c(-c3ccccc3F)nncc2c1-c1c(F)cccc1F`, in data set [1], the inhibition constant Ki is 0.55 nM. In addition, the results for the Efficacy in data set [2] and in data set [3] were 0.45 and 0.23, respectively.

In the case of `Cn1ncnc1COc1nn2c(C3CC3)nncc2c1-c1ccccc1F`, the Ki in data set [1] amounted to 0.36 nM. Besides, the results for the Efficacy in data set [2] and in data set [3] were -0.01 and -0.08, respectively.

In the case of `Cn1ncnc1COc1nn2c(-c3ccco3)nncc2c1-c1ccccc1F`, the inhibition constant (Ki) in data set [1] is 0.85 nM. Besides, the Efficacy in data set [2] was determined as 0.19; in data set [3] it was 0.01.

In the case of `Cc1ccccc1-c1c(OCc2ncnn2C)nn2c(-c3ccccc3F)nncc12`, in data set [1], the Ki came out at 23 nM.

`Cn1ncnc1COc1nn2c(-c3ccccc3Cl)nncc2c1-c1ccccc1F`: in data set [1], the inhibition constant (Ki) was determined as 21 nM. The Efficacy was 0.02 in data set [2] and -0.02 in data set [3].

`Cn1ncnc1COc1nn2c(-[n+]3ccncc3)nncc2c1-c1ccccc1F`: the inhibition constant Ki in data set [1] turned out to be 2.7 nM. Also, the Efficacy in data set [2] was determined as 0.18; in data set [3], 0.03.

Turning to `Cn1ncnc1COc1nn2c(-c3ccccc3F)nncc2c1-c1cccc(N)c1`, the Ki in data set [1] came out at 14 nM. The Efficacy was 0.38 in data set [2] and 0.42 in data set [3].

Regarding `Cn1ncnc1COc1nn2c(-c3ccccc3F)nncc2c1-c1cncnc1`, the inhibitory constant (Ki) in data set [1] was over 33 nM.

Turning to `Cn1ncnc1COc1nn2c(-c3ccccc3F)nncc2c1-c1cccs1`, the Ki in data set [1] worked out at 0.1 nM. Also, the Efficacy in data set [2] was determined as 0.12; in data set [3] it was 0.01.

In the case of `Cn1ncnc1COc1nn2c(-c3ccccc3F)nncc2c1-c1ccco1`, the inhibition constant Ki in data set [1] was determined as 0.11 nM. Moreover, the Efficacy in data set [2] was 0.16; in data set [3], -0.09.

Take `Cn1ncnc1COc1nn2c(-c3ccccc3F)nncc2c1-c1cccc(F)c1F`: the inhibitory constant (Ki) in data set [1] was found to be 1.5 nM. Further, the Efficacy was 0.4 in data set [2] and 0.27 in data set [3].

As for `Cn1ncnc1COc1nn2c(-c3ccccc3F)nncc2c1-c1ccc(F)cc1`, the inhibition constant Ki in data set [1] amounted to 6.3 nM. Besides, the Efficacy in data set [2] is 0.31; in data set [3], 0.09.

With `Cn1ncnc1COc1nn2c(-c3ccccc3F)nncc2c1-c1cccc(C#N)c1`, in data set [1], the Ki was 1.6 nM. Also, the Efficacy in data set [2] worked out at 0.28; in data set [3] it was 0.35.

In the case of `Cn1ncnc1COc1nn2c(-c3ccccc3F)nncc2c1-c1cccc(F)c1`, in data set [1], the inhibition constant Ki was 0.28 nM. The figures for the Efficacy in data set [2] and in data set [3] were 0.46 and 0.23, respectively.

For the compound `Cn1ncnc1COc1nn2c(-c3ccccc3F)nncc2c1-c1ccccc1F`, the inhibitory constant (Ki) in data set [1] turned out to be 0.45 nM. The Efficacy turned out to be 0.4 in data set [2] and 0.22 in data set [3].

Regarding `Cn1ncnc1COc1nn2c(-c3ccc(F)cc3F)nncc2c1-c1ccccc1F`, the inhibitory constant (Ki) in data set [1] came to 2 nM. In addition, the figures for the Efficacy in data set [2] and in data set [3] were 0.78 and 0.42, respectively.

On to `Cn1ncnc1COc1nn2c(-c3ccccc3F)nncc2c1-c1ccccc1C(F)(F)F`, for which the Ki in data set [1] is over 33 nM.

As for `Cn1ncnc1COc1nn2c(-c3ccccc3F)nncc2c1-c1ccncc1`, the inhibition constant Ki in data set [1] came to 0.14 nM. Moreover, the Efficacy in data set [2] stood at 0.19; in data set [3], 0.1.

`Cn1ncnc1COc1nn2c(-c3ccccc3F)nncc2c1-c1ccccn1`: the Ki in data set [1] was 1.4 nM. Moreover, the values for the Efficacy in data set [2] and in data set [3] were 0.56 and 0.45, respectively.

What is called bioavailability is dose-corrected exposure relative to a reference, in per cent. As for `Cn1ncnc1COc1nn2c(-c3ccccc3F)nncc2c1-c1ccsc1`, in data set [1], the Ki worked out at 0.1 nM. In data set [4], this compound displayed a bioavailability of 32%. In the data set with Rattus norvegicus, this compound registered an Activity of 0.54 mg/kg. Further, the Efficacy in data set [2] is 0.21; in data set [3], -0.02.

Regarding `Cn1ncnc1COc1nn2c(-c3c(F)ccc(F)c3F)nncc2c1-c1ccccc1F`, the Ki in data set [1] worked out at 2.7 nM. The values for the Efficacy in data set [2] and in data set [3] were 0.55 and 0.45, respectively.

In the case of `Cn1ncnc1COc1nn2c(-c3ccc(F)cc3)nncc2c1-c1ccccc1F`, the Ki in data set [1] worked out at 0.94 nM. The results for the Efficacy in data set [2] and in data set [3] were 0.6 and 0.36, respectively.

Take `Cn1ncnc1COc1nn2c(-c3ccccc3F)nncc2c1-c1cc(F)cc(F)c1`: in data set [1], the inhibition constant Ki is over 33 nM.

On to `Cn1ncnc1COc1nn2c(-c3ccccc3F)nncc2c1-c1ccccc1`, for which the Ki is 0.77 nM in data set [1] and 0.39 nM in data set [5]. Also, the Efficacy amounted to 0.44 in data set [2] and 0.18 in data set [3].

On to `Cn1ncnc1COc1nn2c(-c3ccoc3)nncc2c1-c1ccccc1F`, for which the inhibition constant Ki in data set [1] came to 0.61 nM. The values for the Efficacy in data set [2] and in data set [3] were -0.12 and 0.07, respectively.

For the compound `Cn1ncnc1COc1nn2c(-c3ccccc3F)nncc2c1-c1cccc(C(F)(F)F)c1`, the inhibition constant Ki in data set [1] amounted to 0.54 nM. Besides, the Efficacy in data set [2] turned out to be 0.46; in data set [3] it was 0.3.

As to `Cn1ncnc1COc1nn2c(-c3c(F)cc(F)cc3F)nncc2c1-c1ccccc1F`, in data set [1], the Ki was 2.6 nM. Also, the Efficacy in data set [2] turned out to be 0.59; in data set [3] it was 0.37.

For the compound `Cn1ncnc1COc1nn2c(-c3ccccc3F)nncc2c1-c1cccc(CO)c1`, the Ki in data set [1] came to 6.6 nM. The Efficacy in data set [2] and in data set [3] was 0.5 in each case.

Turning to `Cn1ncnc1COc1nn2c(-c3ccccc3F)nncc2c1-c1ccccc1Cl`, in data set [1], the inhibition constant (Ki) was found to be 8.7 nM. For the same compound, the Efficacy in data set [2] and in data set [3] was 0.32 throughout.

As to `Cn1ncnc1COc1nn2c(-c3cccnc3)nncc2c1-c1ccccc1F`, the inhibitory constant (Ki) in data set [1] turned out to be 1.1 nM. The Efficacy came out at 0.16 in data set [2] and 0.15 in data set [3].
